Laboratory results from patent US8188273B2, “Insecticidal (1,3,5)-triazinyl phenyl hydrazones” (Dow AgroSciences, LLC., priority 2007, dated 2012).

Assays:
[1] = system: beet armyworm (Spodoptera exigua); experiment: Insecticidal test on treated lepidopteran diet, beet armyworm; format: in vivo; conditions: 120 h, second-instar larvae on treated diet, 8 wells, dose of 50 mg/cm^2 [sic] (2000 ppm, 50 μL), dead insects counted 5 days after treatment, read-out: AVG LAPHEG 50 (percent control, beet army worm)
Protocol: (§1) The compounds identified in Table 1 were prepared according to the previous methods and were tested against beet armyworm and corn earworm as follows:
(§2) Insecticidal Test for Corn Earworm (Helicoverpa zea) and Beet Armyworm (Spodoptera exigua).
(§3) To prepare test solution, the test compound was formulated at 2000 ppm solution as 4 mg/2 mL of 9 acetone:1 tap water. 50 μL of the 2000 ppm (equivalent to 50 μg/cm^2 dose on diet surface area) test solution was pipetted upon the surface of 1 mL of lepidopteran diet (Southland Multi-Species Lepidopteran Diet) contained in each of eight wells per insect species (one well=1 replication). A second-instar corn earworm and beet armyworm was placed upon the treated diet in each well once the solvent had air-dried. Trays containing the treated diet and larvae were covered and then held in a growth chamber at 25° C., 50-55% RH, and 16 hr light:8 hr dark for 5 days. Observation were conducted 5 days after treatment and infestation. The number of dead insects of 8 per species per treatment was then determined and the results are given in Table 1 as a percent control at a dose of […].
(§4) Keys to the table: Mass spectral data were obtained using liquid chromatography mass spectroscopy (LC-MS). The masses are detected using electrospray ionization (ESI) and reported as Mol Ion (M+H, M−H); AVG LAPHEG 50 refers to activity against beet army worm (Spodoptera exigua) as defined above; AVG HELIZE 50 refers to activity against corn ear worm (Helicoverpa zea) as described above.

[2] = system: corn earworm (Helicoverpa zea); experiment: Insecticidal test on treated lepidopteran diet, corn earworm; format: in vivo; conditions: 120 h; second-instar larvae on treated diet, 8 wells; dose of 50 mg/cm^2 [sic] (2000 ppm, 50 μL); dead insects counted 5 days after treatment; read-out: AVG HELIZE 50 (percent control, corn ear worm)
Protocol: as §1, §2, §3, §4

In the case of `CC1CN(c2nc(N/N=C/c3cc(F)cc(C(F)(F)F)c3)nc(Nc3ccc(F)c(C(F)(F)F)c3)n2)CC(C)O1` (centres unmarked) [Compound 47], the pest or weed control at 2000 µg/mL [1] is reported as 100% and the pest or weed control at 2000 µg/mL [2] is reported as 75%.

`CCOCCN(CCOCC)c1nc(N/N=C/c2ccc(OC(F)(F)F)cc2)nc(Nc2ccc(F)c(C(F)(F)F)c2)n1` [Compound 48] gave a pest or weed control at 2000 µg/mL [1] of 13% and a pest or weed control at 2000 µg/mL [2] of 0%.

Molecule `CC1CN(c2nc(N/N=C/c3ccc(OC(F)(F)C(F)F)cc3)nc(Nc3ccc(F)c(C(F)(F)F)c3)n2)CC(C)O1` (centres unmarked) [Compound 49] has a pest or weed control at 2000 µg/mL [1] of 100% and a pest or weed control at 2000 µg/mL [2] of 100%.

Work on `FC(F)(F)Oc1ccc(/C=N/Nc2nc(NCCN3CCOCC3)nc(Nc3cccc(C(F)(F)F)c3)n2)cc1` [Compound 50] yielded a pest or weed control at 2000 µg/mL [1] of 100% and a pest or weed control at 2000 µg/mL [2] of 100%.

`Fc1ccc(Nc2nc(NCc3ccc(Cl)nc3)nc(N/N=C/c3cccc(OC(F)(F)C(F)F)c3)n2)cc1C(F)(F)F` [Compound 51] gave a pest or weed control at 2000 µg/mL [1] of 100% and a pest or weed control at 2000 µg/mL [2] of 100%.

`Fc1ccc(Nc2nc(N/N=C/c3ccc(OC(F)(F)C(F)F)cc3)nc(N3CCOCC3)n2)cc1C(F)(F)F` [Compound 52] was tested, and the pest or weed control at 2000 µg/mL [1] was 100% and the pest or weed control at 2000 µg/mL [2] was 100%.

With `Fc1ccc(Nc2nc(N/N=C/c3cccc(OC(F)(F)C(F)F)c3)nc(N3CCOCC3)n2)cc1C(F)(F)F` [Compound 53] the pest or weed control at 2000 µg/mL [1] was 100% and the pest or weed control at 2000 µg/mL [2] was 100%.

In the case of `Fc1ccc(Nc2nc(N/N=C/c3ccc(OC(F)(F)F)cc3)nc(N3CCOCC3)n2)cc1C(F)(F)F` [Compound 54], the pest or weed control at 2000 µg/mL [1] is reported as 100% and the pest or weed control at 2000 µg/mL [2] is reported as 100%.

`Cc1cnc(CNc2nc(N/N=C/c3cccc(OC(F)(F)C(F)F)c3)nc(Nc3ccc(F)c(C(F)(F)F)c3)n2)cn1` [Compound 56] was tested, and the pest or weed control at 2000 µg/mL [1] was 100% and the pest or weed control at 2000 µg/mL [2] was 63%.

`Cc1cnc(CNc2nc(N/N=C/c3ccc(OC(F)(F)F)cc3)nc(Nc3ccc(F)c(C(F)(F)F)c3)n2)cn1` [Compound 57] showed a pest or weed control at 2000 µg/mL [1] of 100% and a pest or weed control at 2000 µg/mL [2] of 100%.

In the case of `CONc1nc(N/N=C/c2cccc(C(F)(F)F)c2)nc(Nc2ccc(OC(F)(F)F)cc2)n1` [Compound 58], the pest or weed control at 2000 µg/mL [1] is reported as 100% and the pest or weed control at 2000 µg/mL [2] is reported as 100%.

With `Fc1ccc(Nc2nc(NCc3ccc(Cl)nc3)nc(N/N=C/c3cccc(OC(F)(F)F)c3)n2)cc1C(F)(F)F` [Compound 60] the pest or weed control at 2000 µg/mL [1] was 100% and the pest or weed control at 2000 µg/mL [2] was 100%.

With `FC(F)C(F)(F)Oc1cccc(/C=N/Nc2nc(Nc3ccc(OC(F)(F)F)cc3)nc(N3CCOCC3)n2)c1` [Compound 61] the pest or weed control at 2000 µg/mL [1] was 100% and the pest or weed control at 2000 µg/mL [2] was 100%.

`FC(F)(F)Oc1ccc(/C=N/Nc2nc(Nc3cccc(C(F)(F)F)c3)nc(N3CCOCC3)n2)cc1` [Compound 62] showed a pest or weed control at 2000 µg/mL [1] of 100% and a pest or weed control at 2000 µg/mL [2] of 100%.

For `Fc1ccc(Nc2nc(NCc3ccc(Cl)nc3)nc(N/N=C/c3ccc(OC(F)(F)C(F)F)cc3)n2)cc1C(F)(F)F` [Compound 63], the pest or weed control at 2000 µg/mL [1] was 100% and the pest or weed control at 2000 µg/mL [2] was 100%.

`Fc1ccc(Nc2nc(NCc3ccncc3)nc(N/N=C/c3ccc(OC(F)(F)F)cc3)n2)cc1C(F)(F)F` [Compound 64] showed a pest or weed control at 2000 µg/mL [1] of 100% and a pest or weed control at 2000 µg/mL [2] of 100%.

`Fc1ccc(Nc2nc(NCc3ccc(Cl)nc3)nc(N/N=C/c3ccc(C(F)(F)F)cc3)n2)cc1C(F)(F)F` [Compound 65] was tested, and the pest or weed control at 2000 µg/mL [1] was 100% and the pest or weed control at 2000 µg/mL [2] was 100%.

With `COc1cccc(/C=N/Nc2nc(NCc3ccc(Cl)nc3)nc(Nc3ccc(F)c(C(F)(F)F)c3)n2)c1` [Compound 66] the pest or weed control at 2000 µg/mL [1] was 100% and the pest or weed control at 2000 µg/mL [2] was 100%.

For `Fc1ccc(Nc2nc(NCc3ccc(Cl)nc3)nc(N/N=C/c3cc(Cl)cc(Cl)c3)n2)cc1C(F)(F)F` [Compound 67], the pest or weed control at 2000 µg/mL [1] was 100% and the pest or weed control at 2000 µg/mL [2] was 100%.

In the case of `Fc1ccc(Nc2nc(NCc3ccc(Cl)nc3)nc(N/N=C/c3ccc(Cl)cc3)n2)cc1C(F)(F)F` [Compound 68], the pest or weed control at 2000 µg/mL [1] is reported as 100% and the pest or weed control at 2000 µg/mL [2] is reported as 100%.

`Fc1ccccc1/C=N/Nc1nc(NCc2ccc(Cl)nc2)nc(Nc2ccc(F)c(C(F)(F)F)c2)n1` [Compound 69] was tested, and the pest or weed control at 2000 µg/mL [1] was 100% and the pest or weed control at 2000 µg/mL [2] was 100%.

Work on `Fc1ccc(Nc2nc(NCc3ccc(Cl)nc3)nc(N/N=C/c3cccc(Br)c3)n2)cc1C(F)(F)F` [Compound 70] yielded a pest or weed control at 2000 µg/mL [1] of 100% and a pest or weed control at 2000 µg/mL [2] of 100%.

`Fc1ccc(Nc2nc(NCc3ccc(Cl)nc3)nc(N/N=C/c3ccc(Cl)c(Cl)c3)n2)cc1C(F)(F)F` [Compound 71] showed a pest or weed control at 2000 µg/mL [1] of 100% and a pest or weed control at 2000 µg/mL [2] of 100%.

Molecule `Fc1ccc(Nc2nc(NCc3ccc(Cl)nc3)nc(N/N=C/c3ccccc3Cl)n2)cc1C(F)(F)F` [Compound 72] has a pest or weed control at 2000 µg/mL [1] of 0% and a pest or weed control at 2000 µg/mL [2] of 25%.

In the case of `Fc1cccc(/C=N/Nc2nc(NCc3ccc(Cl)nc3)nc(Nc3ccc(F)c(C(F)(F)F)c3)n2)c1` [Compound 73], the pest or weed control at 2000 µg/mL [1] is reported as 100% and the pest or weed control at 2000 µg/mL [2] is reported as 100%.

`Fc1ccc(Nc2nc(NCc3ccc(Cl)nc3)nc(N/N=C/c3cccc(C(F)(F)F)c3)n2)cc1C(F)(F)F` [Compound 74] gave a pest or weed control at 2000 µg/mL [1] of 100% and a pest or weed control at 2000 µg/mL [2] of 100%.

In the case of `Fc1ccc(Nc2nc(NCc3ccc(Cl)nc3)nc(N/N=C/c3cccc(Cl)c3)n2)cc1C(F)(F)F` [Compound 75], the pest or weed control at 2000 µg/mL [1] is reported as 100% and the pest or weed control at 2000 µg/mL [2] is reported as 100%.

`Fc1ccc(/C=N/Nc2nc(NCc3ccc(Cl)nc3)nc(Nc3ccc(F)c(C(F)(F)F)c3)n2)cc1` [Compound 76] showed a pest or weed control at 2000 µg/mL [1] of 100% and a pest or weed control at 2000 µg/mL [2] of 100%.

Molecule `Fc1ccc(Nc2nc(NCc3ccc(C(F)(F)F)nc3)nc(N/N=C/c3ccc(OC(F)(F)F)cc3)n2)cc1C(F)(F)F` [Compound 77] has a pest or weed control at 2000 µg/mL [1] of 100% and a pest or weed control at 2000 µg/mL [2] of 100%.

In the case of `Fc1ccc(Nc2nc(N/N=C/c3cccc(OC(F)(F)C(F)F)c3)nc(N3CCOCC3)n2)cc1F` [Compound 78], the pest or weed control at 2000 µg/mL [1] is reported as 13% and the pest or weed control at 2000 µg/mL [2] is reported as 88%.

With `CCCOc1ccc(Nc2nc(N/N=C/c3cccc(OC(F)(F)C(F)F)c3)nc(N3CCOCC3)n2)cc1` [Compound 79] the pest or weed control at 2000 µg/mL [1] was 13% and the pest or weed control at 2000 µg/mL [2] was 100%.

Molecule `Fc1ccc(Nc2nc(NCCc3cccnc3)nc(N/N=C/c3ccc(OC(F)(F)F)cc3)n2)cc1C(F)(F)F` [Compound 80] has a pest or weed control at 2000 µg/mL [1] of 100% and a pest or weed control at 2000 µg/mL [2] of 100%.

Molecule `Fc1cc(C(F)(F)F)ccc1Nc1nc(N/N=C/c2cccc(OC(F)(F)C(F)F)c2)nc(N2CCOCC2)n1` [Compound 81] has a pest or weed control at 2000 µg/mL [1] of 100% and a pest or weed control at 2000 µg/mL [2] of 100%.

Molecule `COc1ccc(CNc2nc(N/N=C/c3ccc(OC(F)(F)F)cc3)nc(Nc3ccc(F)c(C(F)(F)F)c3)n2)cn1` [Compound 82] has a pest or weed control at 2000 µg/mL [1] of 100% and a pest or weed control at 2000 µg/mL [2] of 100%.

Work on `FC(F)C(F)(F)Oc1cccc(/C=N/Nc2nc(Nc3cccc(OC(F)(F)F)c3)nc(N3CCOCC3)n2)c1` [Compound 83] yielded a pest or weed control at 2000 µg/mL [1] of 100% and a pest or weed control at 2000 µg/mL [2] of 100%.

Molecule `FC(F)C(F)(F)Oc1cccc(Nc2nc(N/N=C/c3ccc(C(F)(F)F)cc3)nc(N3CCOCC3)n2)c1` [Compound 84] has a pest or weed control at 2000 µg/mL [1] of 25% and a pest or weed control at 2000 µg/mL [2] of 75%.

For `FC(F)C(F)(F)Oc1cccc(Nc2nc(NCc3ccc(Cl)nc3)nc(N/N=C/c3ccc(C(F)(F)F)cc3)n2)c1` [Compound 85], the pest or weed control at 2000 µg/mL [1] was 100% and the pest or weed control at 2000 µg/mL [2] was 100%.
